The record followed here is patent US12606552B2, “Bifunctional compound, preparation method therefor, and use thereof” (SUZHOU KINTOR PHARMACEUTICALS, INC., priority 2020, dated 2026).

In the experiment the target is T1, AR (Homo sapiens, UniProt P10275, T878A).
T1 sequence (P10275 1-920 T878A): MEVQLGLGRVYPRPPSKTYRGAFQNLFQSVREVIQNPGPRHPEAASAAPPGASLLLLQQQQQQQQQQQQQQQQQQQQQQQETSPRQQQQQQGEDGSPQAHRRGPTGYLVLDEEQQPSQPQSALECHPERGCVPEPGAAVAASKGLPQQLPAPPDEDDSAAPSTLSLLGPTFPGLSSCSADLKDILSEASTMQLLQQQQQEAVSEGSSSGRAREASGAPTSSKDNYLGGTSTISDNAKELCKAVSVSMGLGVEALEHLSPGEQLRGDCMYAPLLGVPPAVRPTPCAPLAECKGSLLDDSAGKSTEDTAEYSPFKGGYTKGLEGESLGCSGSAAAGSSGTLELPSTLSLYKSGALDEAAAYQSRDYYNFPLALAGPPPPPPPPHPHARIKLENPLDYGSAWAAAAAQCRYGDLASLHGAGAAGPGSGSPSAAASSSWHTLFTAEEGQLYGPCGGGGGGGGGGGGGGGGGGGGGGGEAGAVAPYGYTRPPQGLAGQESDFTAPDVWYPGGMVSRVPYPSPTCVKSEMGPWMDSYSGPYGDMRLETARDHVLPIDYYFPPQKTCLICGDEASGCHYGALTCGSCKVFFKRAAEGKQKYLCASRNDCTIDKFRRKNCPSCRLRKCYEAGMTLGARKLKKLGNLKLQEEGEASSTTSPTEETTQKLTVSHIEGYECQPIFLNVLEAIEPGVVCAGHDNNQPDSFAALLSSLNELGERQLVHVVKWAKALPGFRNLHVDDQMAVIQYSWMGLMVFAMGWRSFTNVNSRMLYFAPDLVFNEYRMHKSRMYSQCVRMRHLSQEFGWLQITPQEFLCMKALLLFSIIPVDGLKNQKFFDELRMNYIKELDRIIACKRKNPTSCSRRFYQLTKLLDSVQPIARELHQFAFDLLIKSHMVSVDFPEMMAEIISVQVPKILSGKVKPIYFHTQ
As to the kind of experiment: Effects of compounds on AR expression in LNCaP cells (ELISA, DC50). Type of experiment: cell-based. Further details: Measurement of the Effects of Drugs on the Expression of AR in Cells by ELISA Method; endogenous in cells; host or cells: LNCaP. The following applies: 24 hours of drug treatment, AR by ELISA. The method, boiled down: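 LNCaP cells at about 15,000/well were treated for 24 h with compound at 0.0001–2 μmol/L final. AR in cell lysates was measured by ELISA (OD450). Inhibition was relative to DMSO control after blank subtraction, and DC50 was calculated from it.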
A general note: ELISA stands for enzyme-linked immunosorbent assay.

Each structure is given as a SMILES string.

For `Cc1ncsc1-c1ccc(CNC(=O)[C@@H]2C[C@@H](O)CN2C(=O)[C@@H](NC(=O)C2CCN(C3CCN(C(=O)c4ccc(-c5ccc(N6C(=S)N(c7ccc(C#N)c(C(F)(F)F)c7F)C(=O)C6(C)C)cn5)cc4)CC3)CC2)C(C)(C)C)cc1` [Compound A61], the DC50 was found to be 268 nM.

`Cc1ncsc1-c1ccc(CNC(=O)[C@@H]2C[C@@H](O)CN2C(=O)[C@@H](NC(=O)COCC(F)C(F)COc2ccc(-c3ncc(N4C(=S)N(c5ccc(C#N)c(C(F)(F)F)c5F)C(=O)C4(C)C)cc3F)c(C(F)(F)F)c2)C(C)(C)C)cc1` (stereo partly drawn) [Compound A154]: the DC50 came out at 37.6 nM.

In turn, `Cc1ncsc1-c1ccc(CNC(=O)[C@@H]2C[C@@H](O)CN2C(=O)[C@@H](NC(=O)CCn2cc(COc3ccc(-c4ccc(N5C(=S)N(c6ccc(C#N)c(C(F)(F)F)c6F)C(=O)C5(C)C)cn4)cc3)nn2)C(C)(C)C)cc1` [Compound A80] registered a DC50 of 116 nM.

As to `Cc1ncsc1-c1ccc(CNC(=O)[C@@H]2C[C@@H](O)CN2C(=O)[C@@H](NC(=O)CCN2CCC(NC(=O)c3ccc(-c4ccc(N5C(=S)N(c6ccc(C#N)c(C(F)(F)F)c6F)C(=O)C5(C)C)cn4)cc3)C2)C(C)(C)C)cc1` (stereo partly drawn) [Compound A56], the DC50 was determined as 704 nM.

`CC1(C)C(=O)N(c2ccc(C#N)c(C(F)(F)F)c2F)C(=S)N1c1cnc(-c2ccc(OCC(=O)NCCNc3cccc4c3C(=O)N(C3CCC(=O)NC3=O)C4=O)c(F)c2)c(F)c1` (stereo not drawn) [Compound A41] registered a DC50 of 59 nM.

`Cc1ncsc1-c1ccc(CNC(=O)[C@@H]2C[C@@H](O)CN2C(=O)[C@@H](NC(=O)CCN2CCC(Oc3ccc(-c4ccc(N5C(=S)N(c6ccc(C#N)c(C(F)(F)F)c6F)C(=O)C5(C)C)cn4)cc3)CC2)C(C)(C)C)cc1` [Compound A65]: the DC50 was 32.4 nM.

For the molecule `CC(C)(C)[C@H](NC(=O)COCCCCOc1ccc(-c2ccc(N3C(=S)N(c4ccc(C#N)c(C(F)(F)F)c4F)C(=O)C3(C)C)cn2)cc1)C(=O)N1C[C@H](O)C[C@H]1c1nc(-c2cccs2)c[nH]1` [Compound A209], the DC50 was 856 nM.

As for `CC1(C)C(=O)N(c2ccc(C#N)c(C(F)(F)F)c2F)C(=S)N1c1ccc([C@@H]2C[C@H]2C(=O)NCCCCNC(=O)COc2cccc3c2C(=O)N(C2CCC(=O)NC2=O)C3=O)nc1` (stereo partly drawn) [Compound A28], the DC50 was more than 2000 nM.

Molecule `CC1(C)C(=O)N(c2ccc(C#N)c(C(F)(F)F)c2F)C(=S)N1c1ccc(-c2ccc(OC3CCN(C(=O)COc4cccc5c4C(=O)N(C4CCC(=O)NC4=O)C5=O)C3)cc2)nc1` (stereo not drawn) [Compound A44] gave a DC50 of more than 2000 nM.

Regarding `COc1c(C#N)ccc(N2C(=O)C(C)(C)N(c3cnc(-c4ccc(OCCCCOCC(=O)N[C@H](C(=O)N5C[C@H](O)C[C@H]5C(=O)NCc5ccc(-c6scnc6C)cc5)C(C)(C)C)c(F)c4)c(F)c3)C2=S)c1F` [Compound A215], the DC50 was 83.1 nM.

`CC(C)(C)[C@H](NC(=O)COCCOc1ccc(-c2ncc(N3C(=S)N(c4ccc(C#N)c(C(F)(F)F)c4F)C(=O)C3(C)C)cc2F)cc1F)C(=O)N1C[C@H](O)C[C@H]1C(=O)NCc1ccc(C(N)=O)cc1` [Compound A129]: the DC50 worked out at 67.9 nM.

Take `CC1(C)C(=O)N(c2ccc(C#N)c(C(F)(F)F)c2F)C(=S)N1c1ccc(-c2ccc(OCCNC(=O)COc3ccc4c(c3)C(=O)N(C3CCC(=O)NC3=O)C4=O)cc2)nc1` (stereo not drawn) [Compound A38]: the DC50 was 58.6 nM.

In the case of `Cc1cc(C(C(=O)N2C[C@H](O)C[C@H]2C(=O)N[C@@H](CC(=O)NCCN2CCC(C#Cc3ccc(N4C(=S)N(c5ccc(C#N)c(C(F)(F)F)c5F)C(=O)C4(C)C)cc3)CC2)c2ccc(-c3scnc3C)cc2)C(C)C)on1` (stereo partly drawn) [Compound A184], the DC50 worked out at 370 nM.

With `CC(C)(C)[C@H](NC(=O)COCCCCOc1ccc(-c2ncc(N3C(=S)N(c4ccc(C#N)c(C(F)(F)F)c4F)C(=O)C3(C)C)cc2F)c(C(F)(F)F)c1)C(=O)N1C[C@H](O)C[C@H]1C(=O)NCc1cnco1` [Compound A219], the DC50 came out at 589 nM.

`Cc1ncsc1-c1ccc(CNC(=O)[C@@H]2C[C@@H](O)CN2C(=O)[C@@H](NC(=O)CN2CCN(Cc3ccc(-c4ccc(N5C(=S)N(c6ccc(C#N)c(C(F)(F)F)c6F)C(=O)C5(C)C)cn4)cc3)CC2)C(C)(C)C)cc1` [Compound A86] had a DC50 of 69.3 nM.

In the case of `Cc1ncsc1-c1ccc(CNC(=O)[C@@H]2C[C@@H](O)CN2C(=O)[C@@H](NC(=O)c2ccc(CNC(=O)c3ccc(-c4ccc(N5C(=S)N(c6ccc(C#N)c(C(F)(F)F)c6F)C(=O)C5(C)C)cn4)cc3)cc2)C(C)(C)C)cc1` [Compound A60], the DC50 came to 82.9 nM.

Take `Cc1ncsc1-c1ccc(CNC(=O)[C@@H]2C[C@@H](O)CN2C(=O)[C@@H](NC(=O)COCCC(F)(F)COc2ccc(-c3ncc(N4C(=S)N(c5ccc(C#N)c(C(F)(F)F)c5F)C(=O)C4(C)C)cc3F)cc2F)C(C)(C)C)cc1` [Compound A163]: the DC50 was 171 nM.

`CC(C)(C)[C@H](NC(=O)COCCCCOc1ccc(-c2ccc(N3C(=S)N(c4ccc(C#N)c(C(F)(F)F)c4F)C(=O)C3(C)C)cn2)cc1)C(=O)N1C[C@H](O)C[C@H]1c1nc(-c2cccnc2)c[nH]1` [Compound A214]: the DC50 is 173 nM.

In turn, `CC(C)(C)[C@H](NC(=O)COCCCCCOc1ccc(-c2ncc(N3C(=S)N(c4ccc(C#N)c(C(F)(F)F)c4F)C(=O)C3(C)C)cc2F)cc1F)C(=O)N1C[C@H](O)C[C@H]1C(=O)NCc1ccc(C(N)=O)cc1` [Compound A117] displayed a DC50 of 111 nM.

In turn, `CC1(C)C(=O)N(c2ccc(C#N)c(C(F)(F)F)c2F)C(=S)N1c1ccc(C#CC2CCN(CCNC(=O)COc3cccc4c3C(=O)N(C3CCC(=O)NC3=O)C4=O)CC2)cc1` (stereo not drawn) [Compound A27] showed a DC50 of 34.8 nM.

In turn, `CC1(C)C(=O)N(c2ccc(C#N)c(C(F)(F)F)c2F)C(=S)N1c1ccc(-c2ccc(C(=O)N3CCN(C(=O)COc4cccc5c4C(=O)N(C4CCC(=O)NC4=O)C5=O)CC3)cc2)nc1` (stereo not drawn) [Compound A45] registered a DC50 of more than 2000 nM.

The molecule `Cc1cc(C(C(=O)N2C[C@H](O)C[C@H]2C(=O)N[C@@H](CC(=O)NCCN2CCC(Oc3ccc(-c4ncc(N5C(=S)N(c6ccc(C#N)c(C(F)(F)F)c6F)C(=O)C5(C)C)cc4F)cc3F)CC2)c2ccc(-c3scnc3C)cc2)C(C)C)on1` (stereo partly drawn) [Compound A186] registered a DC50 of 87 nM.

As to `Cc1ncsc1-c1ccc(CNC(=O)[C@@H]2C[C@@H](O)CN2C(=O)[C@@H](NC(=O)CN2CCN(CCc3ccc(-c4ccc(N5C(=S)N(c6ccc(C#N)c(C(F)(F)F)c6F)C(=O)C5(C)C)cn4)cc3)CC2)C(C)(C)C)cc1` [Compound A69], the DC50 was 39.4 nM.

`Cc1ncsc1-c1ccc(CNC(=O)[C@@H]2C[C@@H](O)CN2C(=O)[C@@H](NC(=O)CCN2CCN(C(=O)c3ccc(-c4ccc(N5C(=S)N(c6ccc(C#N)c(C(F)(F)F)c6F)C(=O)C5(C)C)cn4)cc3)CC2)C(C)(C)C)cc1` [Compound A58] gave a DC50 of 133 nM.

On to `Cc1ncsc1-c1ccc(CNC(=O)[C@@H]2C[C@@H](O)CN2C(=O)[C@@H]2CCCN2C(=O)COCCCCOc2ccc(-c3ncc(N4C(=S)N(c5ccc(C#N)c(C(F)(F)F)c5F)C(=O)C4(C)C)cc3F)cc2F)cc1` [Compound A142], for which the DC50 was more than 2000 nM.

Consider `Cc1ncsc1-c1ccc(CNC(=O)[C@@H]2C[C@@H](O)CN2C(=O)[C@@H](NC(=O)COCCOc2ncc(N3C(=S)N(c4ccc(C#N)c(C(F)(F)F)c4F)C(=O)C3(C)C)cc2C(F)(F)F)C(C)(C)C)cc1` [Compound A269], for which the DC50 is 766 nM.

In turn, `Cc1ncsc1-c1ccc(CNC(=O)[C@@H]2C[C@@H](O)CN2C(=O)[C@@H](NC(=O)COCC(F)C(F)COc2ccc(-c3ncc(N4C(=S)N(c5ccc(C#N)c(C(F)(F)F)c5F)C(=O)C4(C)C)cc3F)cc2F)C(C)(C)C)cc1` (stereo partly drawn) [Compound A150] showed a DC50 of 90.6 nM.

With `Cc1ncsc1-c1cn(C)c([C@@H]2C[C@@H](O)CN2C(=O)[C@@H](NC(=O)COCCCCOc2ccc(-c3ccc(N4C(=S)N(c5ccc(C#N)c(C(F)(F)F)c5F)C(=O)C4(C)C)cn3)cc2)C(C)(C)C)n1` [Compound A220], the DC50 stood at 289 nM.

The molecule `CC1(C)C(=O)N(c2ccc(C#N)c(C(F)(F)F)c2F)C(=S)N1c1cnc(-c2ccc(OC3CCN(C(=O)COc4ccc5c(c4)C(=O)N(C4CCC(=O)NC4=O)C5=O)CC3)c(F)c2)c(F)c1` (stereo not drawn) [Compound A42] showed a DC50 of 122 nM.

Turning to `Cc1ncsc1-c1ccc(CNC(=O)[C@@H]2C[C@@H](O)CN2C(=O)[C@@H](NC(=O)[C@H]2CC[C@H](CNC(=O)CCCc3ccc(N4C(=S)N(c5ccc(C#N)c(C(F)(F)F)c5F)C(=O)C4(C)C)cn3)CC2)C(C)(C)C)cc1` [Compound A140], the DC50 came to 1500 nM.
